# Measured values from patent US20250019346A1, “Salts of Ruxolitinib and Crystalline Forms Thereof” (Apotex Inc., priority 2021, published 2025).
# Read-outs that look alike come from different tables or passages of the source.
# What was measured:
# [1] = per CDER review, NDA 202192; cited from earlier work
# [2] = Comparative intrinsic dissolution testing (Wood apparatus); assay type: physicochemical; settings: 900 mL deionized water, 75 rpm, sample compressed at 1.5 metric tons for 1 minute
# Protocol: Intrinsic dissolution rate (IDR) measurements were performed using a Wood apparatus. Samples were prepared by compressing 250-300 mg sample at 1.5 metric tons for 1 minute. A dissolution medium consisting of 900 mL deionized water, and rotation speed of 75 rpm, was used for each experiment.
# [3] = uncapped samples, 40° C./75% RH
# Protocol: PXRD diffractograms were recorded on a Bruker D8 Discover powder X-ray diffractometer (Bruker AXS LLC, Karlsruhe, Germany). The generator was a Incoatec Microfocus Source (IμS) Cu tube (λ=1.54060 Å) with a voltage of 50 kV and current of 1.00 mA, using a divergence slit of 0.1 mm and collimator of 2.0 mm. For each sample, two frames were collected using a still scan with a PILATUS3 R 100K-A detector at the distance of 294.2 mm from the sample. Raw data were evaluated using the program DIFFRAC.EVA (Bruker AXS LLC, Karlsruhe, Germany).
# [4] = pH values 1.2, 4.5 and 6.8
Compound,Intrinsic Dissolution Rate [2] [mg min^−1 cm^−2],Change in the crystalline form (PXRD) ([3]; at least 5 months),other results
N#CC[C@H](C1CCCC1)n1cc(-c2ncnc3[nH]ccc23)cn1 [Ruxolitinib phosphate],0.0545,–,Biopharmaceutics Classification System (BCS) class [1]: Class I; Permeability [1]: high permeability; Solubility [1]: high solubility
CC1=CC(=O)NS(=O)(=O)O1.N#CC[C@H](C1CCCC1)n1cc(-c2ncnc3[nH]ccc23)cn1 [Ruxolitinib acesulfamate Form APO-I],0.2261,–,Change in the crystalline form (PXRD) ([3]; 8 weeks): no change in the crystalline form occurred
CC1=CC(=O)NS(=O)(=O)O1.N#CCC(C1CCCC1)n1cc(-c2ncnc3[nH]ccc23)cn1 (stereo not shown) [Ruxolitinib acesulfamate Form APO-II],0.0767,no change in the crystalline form occurred,–
N#CCC(C1CCCC1)n1cc(-c2ncnc3[nH]ccc23)cn1.O=S(=O)(O)CCS(=O)(=O)O (stereo not shown) [Ruxolitinib edisylate Form APO-I],0.1711,no change in the crystalline form occurred,–
N#CCC(C1CCCC1)n1cc(-c2ncnc3[nH]ccc23)cn1.O=S(=O)(O)c1cccc2c(S(=O)(=O)O)cccc12 (stereo not shown) [Ruxolitinib napadisylate Form APO-I],–,no change in the crystalline form occurred,–
CS(=O)(=O)O.N#CC[C@H](C1CCCC1)n1cc(-c2ncnc3[nH]ccc23)cn1 [Ruxolitinib mesylate Form APO-I],–,–,Solubility [4]: high solubility; Change in the crystalline form (PXRD) ([3]; at least 8 months): no change in the crystalline form occurred
